# Data: paper PMC10002220, “In Vivo Reversal of P-Glycoprotein-Mediated Drug Resistance in a Breast Cancer Xenograft and in Leukemia Models Using a Novel, Potent, and Nontoxic Epicatechin EC31” (International Journal of Molecular Sciences, 2023)
# Assays:
# fibroblast cells = test system: fibroblast cells; parameters: method as in PMID 25985195, PMID 34597896; details: cited from earlier work
# P-gp [1] = target: T1, P-gp (Homo sapiens, UniProt P08183); test: EC50 for reversing drug resistance in K562/P-gp cells (cell proliferation assay); details: EC50 for Reversing MDR
# Source text: EC50 was defined as the concentration at which the modulator can reduce the IC50 of an anticancer drug by half in the P-gp-overexpressing cell lines. […] The P-gp-modulating activity of methylated catechin derivatives was further studied by measuring the EC50. […] Three P-gp-overexpressing cell lines were employed, including breast cancer cell line LCC6MDR, mouse leukemia cell line P388ADR, and human leukemia cell line K562/P-gp. The anticancer drugs tested included DOX, PTX, and VCR. All values were presented as mean ± standard error of mean. N = 3–6 independent experiments.
# About 6500 cells of LCC6MDR or 10,000 cells of P388ADR or K562/P-gp were seeded to each well of 96-well plate and were then incubated at 37 °C overnight. […] Cell viability was determined using CellTiter 96 AQueous Assay (Promega, Madison, WI, USA, #G1111) as reported previously [38]. The % of cell survival, IC50 of anticancer drugs towards the cell line, and EC50 of modulators were analyzed using nonlinear regression in Prism 5.0.
# P388ADR leukemia = test: In vivo efficacy in reversing DOX resistance in murine leukemia P388ADR model; parameters: species or system B6D2F1 mice
# Method: Irradiated BDF1 mice were i.p. inoculated with P388ADR cells, which caused mouse leukemia. Irradiated NOD/SCID mice were i.v. inoculated with K562/P-gp cells, which caused human leukemia. The mice were randomized and treated with (1) control treatment (no treatment), (2) DOX alone, and (3) EC31 + DOX. Treatments were given as indicated by the arrows. The number of mice deaths in each treatment group was recorded every day. (A) The percent survival of mice infected with P388ADR. (B) The percent survival of mice infected with K562/P-gp. The mice median survival days and the increased lifespan (ILS) were analyzed with Log-rank (Mantel–COX) test in Prism 5.0. Student’s paired t test was conducted as indicated. ** represents p < 0.01, and *** represents p < 0.001. N.S. = not significant.
# About 1 × 10^6 cells of P388ADR were i.p. inoculated in male B6D2F1 mice aged 5–7 weeks old. There were 3 groups: (1) control group with no treatment, (2) DOX (3 mg/kg i.p.) alone, and (3) cotreatment with EC31 (60 mg/kg i.p.) being injected 1 h prior to DOX (3 mg/kg i.p.) administration. In group 2, DOX was i.p. injected on days 2, 6, 10, 14, and 18 only. In group 3, EC31 was i.p. injected on days 1, 2, 5, 6, 9, 10, 13, 14, 17, and 18, and DOX was i.p. injected on days 2, 6, 10, 14, and 18. Before each treatment, 1.5 mg/mL of DOX was freshly prepared using PBS. Mice survival and body weight were monitored during the study period.
# [2] = In vivo toxicity study of EC31 alone and combined with PTX; details: q2d x 12
# Method: (A) In vivo toxicity study of EC31 alone and of its combination with PTX was conducted. BALB/c mice were randomized into five groups with five mice in each group. Body weight of BALB/c mice during treatments was measured every two days. The treatment groups included (1) solvent control (5% NMP + 5% Cremophor EL + 90% PBS to dissolve EC31 and 5% Ethanol + 5% Cremophor EL + 90% PBS to dissolve PTX), (2) PTX (12 mg/kg i.v.), (3) EC31 (30 mg/kg i.p.), (4) EC31 (30 mg/kg i.p.) + PTX (12 mg/kg i.v.), or (5) EC31 (60 mg/kg i.p.) + PTX (12 mg/kg i.v.). The administration was performed every other day 12 times (q2d x 12). The loss of body weight or appetite and treatment-related mortality were monitored and defined as toxicity. (B) BALB/c nude mice were subcutaneously xenografted with LCC6MDR. When the tumor reached 150–300 mm^3, the mice were randomized and administered once with (1) EC31 alone, (2) PTX alone, or (3) EC31 + PTX. […] The tumors were taken out, and their weights were measured. Intratumor concentration of EC31 or PTX was measured using UPLC-MS/MS, and the actual concentration of PTX or EC31 was normalized to the tumor weight. […] Tumor volume and body weight were monitored throughout the treatment period. […] The tumor volume, tumor weight, and doubling time were measured. The number of animal deaths was recorded during the treatment period. […]
# MRP1 = details: Cpds at 1 μM; IC50 of DOX without/with modulator; cited from earlier work
# P-gp [3] = test: DOX efflux in P388ADR cells; format: cell-based, mouse; details: 1 µM modulator; after 180 min of efflux; P388ADR preloaded with 20 µM DOX
# Method: Figure 2 Effect of methylated catechin derivatives on intracellular DOX accumulation and DOX efflux in the P-gp-overexpressing cancer cells. […] Then, the cells were washed, and the intracellular DOX level was measured using flow cytometer. (A) LCC6MDR, (B) P388ADR, and (C) K562/P-gp. […] (D) In the efflux study, P388ADR cells were firstly incubated with 20 µM DOX for 45 min. […] At 60, 120, and 180 min, the cells were harvested, and the intracellular DOX level was measured. At 180 min, ** represents p < 0.01, and *** represents p < 0.001, both being relative to P388ADR incubated with DMSO only. […] N = 3 independent experiments. DMSO was used as a solvent control, and the highest amount used was 0.5%.
# We investigated if methylated catechin derivatives could inhibit P-gp-mediated drug efflux in P-gp-overexpressing cells. […] Without a modulator, intracellularly, the DOX level was maintained at 80% and 11% after 180 min for P388 and P388ADR cells, respectively (Figure 2D). […] After 180 min of efflux, the intracellular DOX level could be maintained at 61% (p < 0.001), 59% (p < 0.01), 44 % (p < 0.001), and 37%, respectively (Figure 2D).
# P-gp [4] = target: T1, P-gp; test: Intracellular EC31 or PTX accumulation in LCC6 versus LCC6MDR cells; format: cell-based; parameters: expressed in transfected cells; host or cells: MDA435/LCC6MDR (human breast cancer line, gift of Dr. Robert Clarke); details: from accumulation and efflux in cells with or without P-gp
# Source text: N = 3 independent experiments.
# T1 sequence (P08183 whole entry): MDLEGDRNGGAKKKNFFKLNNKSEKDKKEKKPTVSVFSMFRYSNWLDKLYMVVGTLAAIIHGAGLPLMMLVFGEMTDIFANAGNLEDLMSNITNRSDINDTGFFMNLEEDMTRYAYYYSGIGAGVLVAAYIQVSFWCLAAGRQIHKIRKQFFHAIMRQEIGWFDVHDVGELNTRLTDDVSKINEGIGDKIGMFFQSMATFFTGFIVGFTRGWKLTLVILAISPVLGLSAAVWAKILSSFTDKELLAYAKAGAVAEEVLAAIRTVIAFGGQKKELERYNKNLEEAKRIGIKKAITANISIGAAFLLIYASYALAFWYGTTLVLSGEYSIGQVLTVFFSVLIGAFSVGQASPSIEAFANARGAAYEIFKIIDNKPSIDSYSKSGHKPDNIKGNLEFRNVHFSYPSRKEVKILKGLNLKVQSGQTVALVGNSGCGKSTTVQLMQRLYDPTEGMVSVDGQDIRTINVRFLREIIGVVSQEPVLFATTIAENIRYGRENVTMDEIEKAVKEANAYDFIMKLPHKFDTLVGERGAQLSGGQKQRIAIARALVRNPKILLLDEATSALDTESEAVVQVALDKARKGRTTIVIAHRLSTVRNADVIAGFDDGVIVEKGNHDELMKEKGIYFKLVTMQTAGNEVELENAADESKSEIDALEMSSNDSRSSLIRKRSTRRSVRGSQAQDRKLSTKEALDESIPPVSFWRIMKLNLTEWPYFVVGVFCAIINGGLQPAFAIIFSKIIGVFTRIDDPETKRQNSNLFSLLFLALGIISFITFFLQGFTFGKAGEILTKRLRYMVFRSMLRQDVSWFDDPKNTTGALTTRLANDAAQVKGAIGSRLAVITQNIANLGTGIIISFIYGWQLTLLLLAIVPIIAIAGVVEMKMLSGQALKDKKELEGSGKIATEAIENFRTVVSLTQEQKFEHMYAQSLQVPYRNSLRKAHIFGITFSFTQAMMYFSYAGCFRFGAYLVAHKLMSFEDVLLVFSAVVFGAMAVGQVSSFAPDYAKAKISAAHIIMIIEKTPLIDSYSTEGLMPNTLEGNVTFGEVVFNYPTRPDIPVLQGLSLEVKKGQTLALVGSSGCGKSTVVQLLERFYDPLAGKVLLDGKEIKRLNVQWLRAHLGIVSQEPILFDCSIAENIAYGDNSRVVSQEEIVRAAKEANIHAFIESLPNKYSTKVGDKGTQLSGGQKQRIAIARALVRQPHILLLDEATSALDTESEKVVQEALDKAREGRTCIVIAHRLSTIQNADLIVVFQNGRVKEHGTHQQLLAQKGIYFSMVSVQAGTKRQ
smiles,measurement,setting,value
COc1cc(OC)c2c(c1)O[C@H](c1ccc(OC)c(OC)c1)[C@H](OC(=O)c1ccc(F)c(NC(=O)c3cc(OC)c(OC)c(OC)c3)c1)C2 [EC31],IC50,fibroblast cells,> 100 µM
same,EC50,"P-gp [1]; DOX Resistance, K562/P-gp, concentration that reduces IC50 of DOX by half",93 ± 33 nM
same,EC50,"P-gp [1]; VCR Resistance, K562, concentration that reduces IC50 of VCR by half, column head prints K562",37 ± 10 nM
same,median survival,P388ADR leukemia; EC31 60 mg/kg i.p. + DOX 3 mg/kg i.p.,21.5 days
same,ILS% (increase in lifespan),P388ADR leukemia; EC31 60 mg/kg i.p. + DOX 3 mg/kg i.p. compared to DOX alone,30.3%
same,mortality or toxicity symptoms,[2]; EC31 30 mg/kg i.p. alone,did not cause any mortality or toxicity symptoms
same,body weight loss,[2]; EC31 30 or 60 mg/kg i.p. + PTX 12 mg/kg i.v.,≤ 15%
same,2008MRP1 MRP1-modulating activity RF (relative fold),MRP1,1.3
same,Relative intracellular DOX level (%),P-gp [3],44%
same,P-gp transport substrate status,P-gp [4],not a transport substrate of P-gp
